{"source": "paper PMC2614658", "about": "(Antiviral Research, 2008)", "key": {"influenza A/WSN/33 virus [1]": {"test_system": "influenza A/WSN/33 virus"}, "influenza A/WSN/33 virus [2]": {"test_system": "influenza A/WSN/33 virus", "conditions": "∼6 μM PMA"}, "[3]": {"test_system": "influenza B/Yamagata/88 virus", "type": "cell-based"}, "A549 cells": {"test_system": "A549 cells", "conditions": "24 h treatment, MTS assay"}, "[4]": {"test_system": "Newcastle disease virus (NDV/B1)", "type": "cell-based"}, "[5]": {"test_system": "vesicular stomatitis virus (VSV-GFP)", "type": "cell-based"}, "influenza A/WSN/33 virus [6]": {"test_system": "influenza A/WSN/33 virus", "type": "cell-based"}, "in vitro": {"test": "in vitro", "conditions": "human"}, "influenza A/WSN/33 virus [7]": {"test_system": "influenza A/WSN/33 virus", "test": "in vitro", "conditions": "human"}, "influenza A/WSN/33 virus [8]": {"test_system": "influenza A/WSN/33 virus", "test": "microbe, parasite or virus in culture", "conditions": "A549, 24 h"}, "[9]": {"conditions": "read-out: IC50 (compound concentration of 50% inhibition of viral replication)"}}, "note": "Where two headings read alike, the source gives them in different places."}
{"smiles": "CCCCCCCCCCCCCC(=O)O[C@@H]1[C@@H](C)[C@@]2(O)[C@@H](C=C(CO)C[C@]3(O)C(=O)C(C)=C[C@@H]23)[C@@H]2C(C)(C)[C@]12OC(C)=O", "note": "[PMA, phorbol 12-myristate 13-acetate]", "values": [{"measurement": "increase in viral titer compared to untreated control", "setting": "influenza A/WSN/33 virus [1]", "result": 12, "unit": "fold"}, {"measurement": "toxicity at the concentration used in the screen", "setting": "influenza A/WSN/33 virus [2]", "result": "toxic"}]}
{"smiles": "N#Cc1cc2c(OCC(O)CN3CCN(C(c4ccccc4)c4ccccc4)CC3)cccc2[nH]1", "note": "(stereo not shown) [SDZ-201106]", "values": [{"measurement": "reduction in viral titers compared to untreated control", "setting": "[3]", "result": 72, "unit": "%"}, {"measurement": "concentrations found to be non-toxic / not decreasing cell viability", "setting": "A549 cells", "result": "up to 12.5 μM"}, {"measurement": "SI (CC50/IC50), selective index", "setting": "influenza A/WSN/33 virus [1]", "result": 7}, {"measurement": "reduction in viral titers compared to untreated control", "setting": "influenza A/WSN/33 virus [1]", "result": 85, "unit": "%"}, {"measurement": "IC50", "setting": "influenza A/WSN/33 virus [1]; [9]", "result": 4100, "unit": "nM"}]}
{"smiles": "CC(=O)O[C@H]1C[C@H](O[C@H]2[C@@H](O)C[C@H](O[C@H]3[C@@H](O)C[C@H](O[C@H]4CC[C@@]5(C)[C@H](CC[C@@H]6[C@@H]5C[C@@H](O)[C@]5(C)[C@@H](C7=CC(=O)OC7)CC[C@]65O)C4)O[C@@H]3C)O[C@@H]2C)O[C@H](C)[C@H]1O[C@@H]1O[C@H](CO)[C@@H](O)[C@H](O)[C@H]1O", "note": "[lanatoside C]", "values": [{"measurement": "effect on viral replication", "setting": "[4]", "result": "significantly inhibit"}, {"measurement": "effect on viral replication", "setting": "[5]", "result": "significantly inhibit"}, {"measurement": "decrease in viral titers compared to untreated control", "setting": "influenza A/WSN/33 virus [1]; […], 20 nM ouabain or 78 nM lanatoside C", "result": 95.9, "unit": "%"}]}
{"smiles": "C=C(C)[C@@]12O[C@@]3(c4ccccc4)O[C@@H]1[C@@H]1[C@@H]4O[C@]4(CO)[C@@H](O)[C@]4(O)C(=O)C(C)=C[C@H]4[C@@]1(O3)[C@H](C)[C@H]2OC(=O)/C=C/C=C/c1ccccc1", "note": "[mezerein]", "values": [{"measurement": "increase in viral titer compared to untreated cells", "setting": "[3]", "result": "eightfold"}, {"measurement": "increase in viral titers", "setting": "influenza A/WSN/33 virus [6]", "result": 15, "unit": "fold"}]}
{"smiles": "C[C@@H]1O[C@@H](O[C@H]2C[C@@H](O)[C@]3(CO)[C@H]4[C@H](O)C[C@]5(C)[C@@H](C6=CC(=O)OC6)CC[C@]5(O)[C@@H]4CC[C@]3(O)C2)[C@H](O)[C@H](O)[C@H]1O", "note": "[ouabain]", "values": [{"measurement": "effect on viral replication", "setting": "[4]", "result": "significantly inhibit"}, {"measurement": "effect on viral replication", "setting": "[5]", "result": "significantly inhibit"}, {"measurement": "decrease in viral titers compared to untreated control", "setting": "influenza A/WSN/33 virus [1]", "result": 99.1, "unit": "%"}]}
{"smiles": "CC(=O)c1c(O)c(C)c(O)c(Cc2c(O)c3c(c(C(=O)/C=C/c4ccccc4)c2O)OC(C)(C)C=C3)c1O", "note": "[rottlerin]", "values": [{"measurement": "reduction in viral titers compared to untreated control", "setting": "[3]", "result": 80, "unit": "%"}, {"measurement": "concentrations found to be non-toxic / not decreasing cell viability", "setting": "A549 cells", "result": "up to 1.28 μM"}, {"measurement": "reduction in viral titers compared to untreated control", "setting": "influenza A/WSN/33 virus [1]", "result": 93, "unit": "%"}, {"measurement": "CC50", "setting": "in vitro", "result": 18200, "unit": "nM"}, {"measurement": "selectivity ratio", "setting": "influenza A/WSN/33 virus [7]", "result": 39}, {"measurement": "IC50", "setting": "influenza A/WSN/33 virus [8]; [9]", "result": 460, "unit": "nM"}, {"measurement": "IC50", "setting": "influenza A/WSN/33 virus [8]; read-out: IC50 (half maximal inhibitory concentration)", "result": 465, "unit": "nM"}]}
